Legend:
[1] = tested on: eosinophile infiltration in mice actively sensitized with ascaris; test: Test for eosinophile infiltration in mice actively sensitized with ascaris, once-a-day administration; format: in vivo
Experimental: (§1) Test for eosinophile infiltration in mice actively sensitized with ascaris (antigen to pig roundworm):
In the same manner as in Evaluation Example 2, the substances under test were orally administered once a day, in an amount of 5 mg/kg for compound A (representative compound of WO 02/053534) and the compound of Example 58, and in an amount of 0.8 mg/kg of the compound of Example 161, and an evaluation was performed in the same manner as in Evaluation Example 2.

[2] = Test for pharmacokinetics and oral absorbability in monkeys; format: in vivo; settings: orally 0.5 mg/kg, single agent
Experimental: The pharmacokinetic parameters in the case of orally administering (0.5 mg/kg, single agent) the substance under test to monkeys, were as follows.

[3] = tested on: eosinophile infiltration in mice actively sensitized with ascaris; test: Test for eosinophile infiltration in mice actively sensitized with ascaris, administered two times a day; format: in vivo; settings: orally 5 mg/kg two times a day
Experimental: as §1
It has been reported that infiltration of eosinophilic cells is induced by active sensitization with ascaris {Int. Arch. Immuno., 108, 11-18 (1995)}. An evaluation of the compounds under test was performed according to the evaluation method described herein. The substance under test was orally administered in an amount of 5 mg/kg, two times a day. The total cell count and the eosinophile count in BALF of 48 hours after sensitization were calculated, and the effects were determined by comparing with the group not administered with the substance under test.

hα4 and β1 integrins = biological target: T1, hα4 and β1 integrins (Homo sapiens, UniProt P05556+P13612); test: In vitro inhibition of binding between CHO cells expressing hα4 and β1 integrins and Eu3+-hVCAM-1 D1D7-IgG; settings: for Ki: CHO cells expressing hα4 and β1 integrins, Eu3+-hVCAM-1 D1D7-IgG ligand, without HSA; for IC50: in the presence of 3% human serum albumin (HSA final concentration 3%)
T1 construct: expressed in transfected cells; host or cells: CHO cells
T1 sequence (P13612 34-1032): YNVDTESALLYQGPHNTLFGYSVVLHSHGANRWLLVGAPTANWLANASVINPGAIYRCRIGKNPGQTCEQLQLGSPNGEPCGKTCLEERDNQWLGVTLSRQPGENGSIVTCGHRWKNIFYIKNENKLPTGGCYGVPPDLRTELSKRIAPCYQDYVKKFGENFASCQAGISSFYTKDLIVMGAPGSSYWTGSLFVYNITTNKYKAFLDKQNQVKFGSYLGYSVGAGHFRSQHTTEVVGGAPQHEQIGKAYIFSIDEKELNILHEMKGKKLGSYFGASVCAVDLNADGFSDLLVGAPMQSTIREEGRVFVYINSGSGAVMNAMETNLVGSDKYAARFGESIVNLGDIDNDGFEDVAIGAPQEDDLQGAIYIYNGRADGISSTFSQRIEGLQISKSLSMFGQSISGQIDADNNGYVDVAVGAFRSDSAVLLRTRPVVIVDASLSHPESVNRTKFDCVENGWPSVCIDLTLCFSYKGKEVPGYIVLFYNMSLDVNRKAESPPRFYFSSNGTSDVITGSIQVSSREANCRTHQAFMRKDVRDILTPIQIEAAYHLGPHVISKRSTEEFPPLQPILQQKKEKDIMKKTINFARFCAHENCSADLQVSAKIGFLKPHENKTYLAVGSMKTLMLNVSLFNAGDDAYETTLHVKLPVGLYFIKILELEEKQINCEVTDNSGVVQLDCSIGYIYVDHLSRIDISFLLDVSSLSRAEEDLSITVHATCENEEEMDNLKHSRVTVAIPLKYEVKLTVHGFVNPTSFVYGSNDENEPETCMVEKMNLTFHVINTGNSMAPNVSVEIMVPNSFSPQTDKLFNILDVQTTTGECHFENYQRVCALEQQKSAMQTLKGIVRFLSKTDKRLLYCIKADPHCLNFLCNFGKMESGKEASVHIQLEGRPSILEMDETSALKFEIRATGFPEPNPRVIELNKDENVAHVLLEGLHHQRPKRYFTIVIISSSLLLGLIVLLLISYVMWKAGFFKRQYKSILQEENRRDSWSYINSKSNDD
T1 sequence (P05556 21-798): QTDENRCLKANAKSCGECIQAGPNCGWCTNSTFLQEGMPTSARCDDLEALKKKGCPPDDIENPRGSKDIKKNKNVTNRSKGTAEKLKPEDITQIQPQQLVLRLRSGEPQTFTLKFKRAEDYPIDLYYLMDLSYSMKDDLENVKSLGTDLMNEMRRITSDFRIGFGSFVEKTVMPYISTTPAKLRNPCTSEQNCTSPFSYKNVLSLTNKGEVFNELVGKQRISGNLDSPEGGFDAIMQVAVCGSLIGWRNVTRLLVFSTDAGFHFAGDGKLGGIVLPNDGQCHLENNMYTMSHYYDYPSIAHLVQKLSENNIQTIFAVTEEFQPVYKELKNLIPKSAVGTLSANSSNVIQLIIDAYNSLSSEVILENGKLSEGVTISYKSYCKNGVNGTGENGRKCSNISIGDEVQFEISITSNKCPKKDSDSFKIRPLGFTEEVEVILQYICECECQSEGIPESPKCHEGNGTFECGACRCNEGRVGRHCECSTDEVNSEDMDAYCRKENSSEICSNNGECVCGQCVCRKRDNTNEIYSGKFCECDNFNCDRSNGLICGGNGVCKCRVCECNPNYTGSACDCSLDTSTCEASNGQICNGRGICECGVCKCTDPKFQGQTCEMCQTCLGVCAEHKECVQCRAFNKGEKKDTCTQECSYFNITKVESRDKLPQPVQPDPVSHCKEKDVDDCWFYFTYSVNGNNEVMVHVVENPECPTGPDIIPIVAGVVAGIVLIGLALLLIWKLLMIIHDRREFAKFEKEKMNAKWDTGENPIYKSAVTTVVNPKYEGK
Summary of the method: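 Transfected CHO cells, cultured 2 days, were incubated with compound and Eu³⁺-hVCAM-1 D1D7-IgG (diluted to 2 nM) for 1 h at room temperature. Buffer was 25 mM HEPES pH 7.5 with 1 mM Ca²⁺, 1 mM Mg²⁺, 4 mM Mn²⁺ and 0.1% BSA, ±3% HSA final. Cells were washed at 4 °C and read by DELFIA time-resolved fluorescence; Ki was derived from IC50 using the Scatchard Kd.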

| Cltot (mL/min/kg): apparent plasma clearance [2] [mL/min/kg] | AUC (ng · h/ml): total area under the plasma concentration versus time curve ([2]; plasma, LC/MS/MS) [ng·h/mL] | Ki (hα4 and β1 integrins) [nM] | IC50 (hα4 and β1 integrins) [nM] | SMILES | Average total eosinophile count (×10^5) of (ascaris-sensitized + substance under test) group ([1]; orally 5 mg/kg once a day) | inhibition in vivo at 5 mg/kg ([3]; Mus musculus, po, eosinophile count in BALF 48 hours after sensitization vs ascaris-sensitized group, read-out: suppression rate (%)) [%] | Average total eosinophile count (×10^5) of (ascaris-sensitized + substance under test) group ([3]; BALF 48 hours after sensitization) | Average total eosinophile count (×10^5) of (ascaris-sensitized + substance under test) group ([1]; orally 0.8 mg/kg once a day) |
| --- | --- | --- | --- | --- | --- | --- | --- | --- |
| 2.0 | 7555 | 1.5 | 9.3 | CO[C@H]1CN([C@H]2C[C@@H](CO[C@H]3CC[C@H](C(=O)O)CC3)N(C(=O)Cc3cc(Cl)c(NC(=O)c4csc5ccccc45)cc3Cl)C2)C[C@H]1OC [Example 58, Trans-4-[1-[[4-[(benzo[b]thiophen-3-ylcarbonyl)amino]-2,5-dichlorophenyl]acetyl]-(4S)-(cis-3,4-dimethoxypyrrolidin-1-yl)-(2S)-pyrrolidinylmethoxy]cyclohexanecarboxylic acid] | 1.73 ×10^5 | 63 | 1.63 ×10^5 |  |
|  |  | 1.8 | 8.3 | O=C(Nc1cc(F)c(CC(=O)N2C[C@@H](N3CCS(=O)(=O)CC3)C[C@H]2CO[C@H]2CC[C@H](C(=O)O)CC2)cc1Cl)c1coc2ccccc12 [Example 161, Trans-4-[1-[[4-[(benzo[b]furan-3-ylcarbonyl)amino]-5-chloro-2-fluorophenyl]acetyl]-(4S)-(1,1-dioxo-1λ^6-thiomorpholin-4-yl)-(2S)-pyrrolidinylmethoxy]cyclohexanecarboxylic acid] |  |  |  | 2.06 ×10^5 |

— patent US8129366B2, “VLA-4 inhibitory drug” (Daiichi Sankyo Company, Limited, priority 2005, dated 2012)
